From patent publication US20190231783A1, “PHARMACEUTICAL FORMULATIONS” (Corvus Pharmaceuticals, Inc., priority 2018, published 2019)
Several values for one entry are separate records, joined by “and”; a condition that tells them apart may be missing. Equal entries are not always repeated.

What was measured:
[1] = Chemical characterization (assay, impurities) of drug-layered beads and capsules, initial and at CRT/ACC storage; type: physicochemical
Excerpt: The amount of the smaller size drug nanoparticles increased as the level of coating increased, with the smaller hump representing the particle size distribution of the drug nanoparticle suspension and the larger hum representing the particle size distribution of the sugar spheres, which largely remained unchanged throughout the process. […] The particle size distribution of the drug nanoparticles on sugar spheres was similar to that of the particle size distribution of drug nanoparticles in the film.
The assay was low, most likely due to the size of the batch (200 grams) since the minimum amount of drug suspension had to be used, which is smaller than the optimum size for the Vector FL1 fluid bed.
The capsules were stored and monitored at controlled room temperature (CRT, 25° C./60% RH) and accelerated conditions (ACC, 40° C./75% RH), and evaluated for chemical characterization up to 3 months, as shown in Table 15C and Table 15D, respectively.

[2] = Dissolution of un-milled vs nano-milled Formula (III) suspensions (sink and non-sink); type: physicochemical
Method: Dissolution at non-sink conditions was tested to further compare un-milled and milled Formula (III) formulations.

[3] = Assay (% LC) and impurities by HPLC of HME extrudates and tablets, initial and on storage
Excerpt: “Total impurities” refers to in the common pharmaceutical nomenclature as the total sum of all measured impurities and degradation products from the drug substance and is also referred to as total related substances. […] A gradient method was used with 0.1% (V/V) methanesulfonic acid in water as the first mobile phase and acetonitrile as the second. A C18 column with UV detection at 225 nm was used. Acetonitrile-water mixture was used for dilution of the samples.
Chemical stability. […] The impurity profile of the formulations was compared to the crystalline Formula (III) used in the HME extrudate (Table 2C).
Thermal degradation was closely monitored due to the high processing temperature. […] Selected major impurities in the extrudate that could be attributed to the processing condition were summarized based on the relative retention time (RRT) and shown in Table 2E.
Chemical Characterization of stability samples.

[4] = Assay and impurities of MBP dispersions, initial and on storage at 40° C./75% RH; type: physicochemical; details: initial (MBP) or API
Method: Chemical Characterization of samples.
Stability Studies. All initial samples of the MBP were kept in closed 75 mL HDPE bottles and monitored at 40° C. and 75% relative humidity (RH) for up to 3 months. The physical state and chemical stability were reported by XRPD, and assay and impurity. […] The assay and impurity results from the MBP dispersions, stored at 40° C. and 75% relative humidity closed conditions for up to 3 months, and at 40° C. and 75% relative humidity open conditions for up to 2 weeks are reported in the Tables 9D and 9E below.

[5] = Solubility / kinetic solubility in pH 6.8 phosphate buffer; type: physicochemical; details: 37 °C, thermodynamic from solid
Method: Kinetic solubility is a supersaturated or metastable and time-dependent state as opposed to true time-independent equilibrium solubility. […] The bottle was rotated at 50 rpm up to 4 hours at 37° C. Samples were collected at 5, 10, 15, 20, 25, 30, 45, 60, 75, 90, 120, 180, and 240 minutes time points. The samples were filtered using […] PVDF filter and diluted with acetonitrile in 1:1 ratio immediately. The samples were analyzed by HPLC. The concentration of phosphate buffer had only a minor effect on the solubility of the DS or the amorphous solid dispersion (extrudate), and the surfactant made it more difficult to distinguish the enhancement of the solubility.
Solubility Studies. […] Amorphous solid dispersions with 30% drug loading of Formula III with three different stabilizing polymers were evaluated. In particular, excess sample (either Formula (III) milled extrudate or Formula (III) as a control) was added into the bottle containing 120 mL of each media to ensure saturation.
At the same time, SLS diminished the discrimination between the crystalline and amorphous forms. Thus it is advisable to avoid SLS in the dissolution media for kinetic solubility studies.

[6] = Particle size distribution by laser diffraction (nanomilled suspensions, cast films, layered beads); type: physicochemical; details: crystalline drug particles used to prepare Nanosuspension #001-35 (Table 13A)
Method: “Particle size distribution” or “PSD” or “size distribution” refers to the size of particles present in their relative proportions in a sample, as measured by laser diffraction spectroscopy. In aspects, the particle size distribution refers to the particle size distribution of all the drug particles in the composition. The particle size distribution of a sample is measured by laser diffraction spectroscopy. Laser diffraction spectrometers are commercially available as, e.g., MASTERSIZER® 3000 from Malvern Instruments Ltd, and HORIBA® LA-950 by Horiba Instruments, Inc., Irvine Calif. For laser diffraction spectroscopy, particle size distribution is generally described by D values, such as D90. In aspects, the laser diffraction spectroscopy can be analyzed by the Fraunhofer theory. In aspects, the laser diffraction spectroscopy can be analyzed by the Mie scattering theory. In aspects, the laser diffraction spectroscopy can be analyzed by a combination of the Fraunhofer theory and the Mie scattering theory.
Particle size measurements were obtained using water as dispersing media in the fraction cell of the laser diffraction particle size analyzer and analyzed using a refractive index of 1.60+0.01i in water.
Samples at different time points were withdrawn and checked for particle size distribution by laser diffraction and appearance by optical microscopy.

[7] = Assay and related substances by HPLC of nanosuspensions, after milling and on storage; type: physicochemical
Method: Assay and Related Substance Testing. Formulations B, D, and E were tested for assay and related substances (RS) to detect the compatibility with the excipients. […] Assay/RS was not determined at TO for this study.

[8] = initial (formulation) or API as used, listed as API

Total Impurities ([1]; API): 0.8%
Total Impurities % ([1]; initial chemical characterization of the beads (Table 14C)): 0.80%
Solubility dependence on pH [2]: increases significantly below pH 3
Time to complete dissolution ([2]; acid medium, sink condition): 45 min
Solubility of a 100 mg dose in 900 mL phosphate buffer at pH 6.8 ([2]; non-sink condition): not fully soluble
Total Impurities ([3]; initial (Table 8E)): 0.8%
Total Impurities % [3, 8]: 0.82% and 0.818% and 0.80%
Total Specified Impurities % [3, 8]: 0.46% and 0.462%
Total Impurity % [4]: 0.82%
Total Specified Impurity % [4]: 0.46%
solubility at 240 min ([5]; phosphate buffer with sodium lauryl sulphate, pH 6.8, aqueous with cosolvent or surfactant or cyclodextrin, 10 mM Phosphate buffer, pH 6.8, 0.5% SLS): 419 µg/mL
solubility at 240 min ([5]; phosphate buffer with sodium lauryl sulphate, pH 6.8, aqueous with cosolvent or surfactant or cyclodextrin, 10 mM Phosphate buffer, pH 6.8, 1.0% SLS): 593 µg/mL
solubility at 240 min ([5]; phosphate buffer with sodium lauryl sulphate, pH 6.8, aqueous with cosolvent or surfactant or cyclodextrin, 50 mM Phosphate buffer, pH 6.8, 0.5% SLS): 386 µg/mL
solubility at 240 min ([5]; phosphate buffer with sodium lauryl sulphate, pH 6.8, aqueous with cosolvent or surfactant or cyclodextrin, 50 mM Phosphate buffer, pH 6.8, 1.0% SLS): 627 µg/mL
solubility at 240 min ([5]; phosphate buffer, pH 6.8, aqueous buffer, 10 mM Phosphate buffer, pH 6.8, No Surfactant): 23 µg/mL
solubility at 240 min ([5]; phosphate buffer, pH 6.8, aqueous buffer, 50 mM Phosphate buffer, pH 6.8, No Surfactant): 19 µg/mL
Particle Size Distribution D10 [6]: 73 nm
Particle Size Distribution D50 [6]: 169 nm
Particle Size Distribution D90 [6]: 714 nm
Potency (Assay %) ([7]; T = 0 (formulation) or API): 100%
% Impurity by RRT 0.80 ([7]; T = 0 or API): 0.2%
% Impurity by RRT 0.94 ([7]; T = 0 or API): 0.2%
% Impurity by RRT 10.6 ([7]; T = 0 or API): 0.2%
Total Impurity % ([7]; T = 0 or API): 0.6%
Related substances (RS) of the standard ([7]; standard, unmilled): 0.6%
SMILES: Cc1ccc(-c2nc(N)nc3c2nnn3Cc2cccc(COC3CCOC3)n2)o1 (stereo not shown) [Formula (III)]
